According to patent publication US12384743B2, “Compositions comprising (R)-2-amino-3-phenylpropyl carbamate and uses thereof” (priority 2016, dated 2025):
Where a name gives a salt, the structure may show the parent alone. Read-outs that look alike come from different tables or passages of the source.

Key:
[1] = Humidity stressing of Form A; assay type: physicochemical; conditions: approximately 75% humidity (RH)
[2] = assay type: physicochemical; conditions: for relative humidity at which conversion to Form B occurred: slurrying Form A only
Protocol: Slurry experiments were performed with various water activities starting with Form A only and also by conducting interconversion slurries or pre-saturating solutions with APC and then adding equal amounts of Form A and Form B. When slurrying Form A only, conversion to Form B at room temperature occurred at 67% RH, and 40% RH at 2-8° C. With the interconversion slurries, Form B was isolated from all experiments with relative humidities ranging from 50% to 70%.

[3] = Drying studies on Form B (temperature, vacuum, milling, desiccant, low RH stressing); assay type: physicochemical
Protocol: Drying studies were performed on Form B. The drying experiments were performed under various temperatures with and without vacuum. Additionally, milling, storage under desiccant, and low RH stressing were conducted.

[4] = Aqueous solubility of Form B in different pH buffers; assay type: physicochemical; conditions: thermodynamic from solid
[5] = Drying of Form B in scaled-up method (low vacuum); assay type: physicochemical; conditions: oven temperature 20-25° C., low vacuum (700-750 mbar)
Protocol: An additional scaled-up method for producing Form B was developed that reduced reaction time and volume and increased yield. Isolation of Form B from Form A was carried out in 5 volumes of solvent (acetonitrile:water (95%:5% v:v)) at about 20° C. for about 1-2 hours. The drying process was carried out at an oven temperature of 20-25° C. and low vacuum (700-750 mbar). Under these drying conditions Form B was stable and no detectable Form A was formed. This method was used on a 4.5 kg batch of APC and produced Form B with a yield of 93.7%.

NC(=O)OC[C@H](N)Cc1ccccc1 [Form A, (R)-2-amino-3-phenylpropyl carbamate hydrochloride]
solid form after humidity stressing [1]: Partial conversion to Form B | relative humidity at which conversion to Form B occurred ([2]; 2-8° C.): 40 % RH | relative humidity at which conversion to Form B occurred ([2]; room temperature): 67 % RH

NC(=O)OC[C@H](N)Cc1ccccc1 [Form B, (R)-2-amino-3-phenylpropyl carbamate hydrochloride]
stability of solid form (overall result of the drying studies) ([3]; low RH or elevated temperature): not stable | solid form after drying/stress ([3]; vacuum drying at 50° C. 1 day, heating at 80° C. 1 day, milling): Full dehydration to Form A | solid form after drying/stress ([3]; vacuum drying at ambient temperature 1 day, heating at 40° C. 1 day, storage under desiccant 1 day, stressing at 33% RH 2 weeks): Partial conversion to Form A | solubility ([4]; aqueous buffer, Buffer solution pH 4.5, pH (buffer) measured starting conditions 4.5, pH (buffered sample) 5.7, read-out: Solubility (mg/ml mean of triplicates)): 733 mg/mL | solubility ([4]; aqueous buffer, Buffer solution pH 5.5, pH (buffer) measured starting conditions 5.5, pH (buffered sample) 6.0, read-out: Solubility (mg/ml mean of triplicates)): 742 mg/mL | solubility ([4]; aqueous buffer, Buffer solution pH 7.4, pH (buffer) measured starting conditions 7.4, pH (buffered sample) 6.4, read-out: Solubility (mg/ml mean of triplicates)): 746 mg/mL | solubility ([4]; aqueous buffers of different pH, aqueous buffer, different pH buffers, read-out: aqueous solubility): > 700 mg/mL | solubility ([4]; buffer solution, aqueous buffer, pH 1-6.5, read-out: solubility in buffer solution): 700 to 750 mg/mL | solubility ([4]; simulated gastric fluid, Buffer solution pH 1.2, pH (buffer) measured starting conditions 1.2, pH (buffered sample) 4.5, read-out: Solubility (mg/ml mean of triplicates)): 732 mg/mL | relative stability of solid forms ([2]; interconversion slurry of Form A and Form B, approximately 50% RH or greater at room temperature): more stable form | stability of solid form on drying [5]: stable
